Measurements reported in PubChem BioAssay (NCI).
Where “and” joins values, the source holds several entries; their conditions need not be identical. Equal entries are not always repeated.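 Method: 48-hour compound exposure of cells in 96-well plates, five concentrations, linear interpolation of endpoints. GI50 marks 50% less growth. At the TGI there is no net growth.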

Key:
Experiment in all cases: NCI-60 cell line screen, 48 h
[1] = test system: HOP-62 NSCLC
[2] = test system: COLO 205 colon
[3] = test system: SK-MEL-5 melanoma
[4] = test system: SK-MEL-2 melanoma
[5] = test system: RXF 393 renal
[6] = test system: HT29 colon
[7] = test system: OVCAR-8 ovarian
[8] = test system: NCI-H460 lung
[9] = test system: OVCAR-4 ovarian
[10] = test system: NCI-H23 lung
[11] = test system: DMS 273 small cell lung
[12] = test system: SF-268 CNS
[13] = test system: KM20L2 colon
[14] = test system: M19-MEL melanoma
[15] = test system: XF 498 CNS
[16] = test system: MDA-N

For `COc1cc([C@@H]2c3cc4c(cc3[C@@H](NCc3ccccc3F)C3COC(=O)[C@@H]32)OCO4)cc(OC)c1O` (some centres not stated), which TGI [1] is on record?
Its TGI is 7.74 µM.

What about the TGI [2] of the same molecule?
The TGI was 77.4 µM.

What about the TGI [3] of the same molecule?
Its TGI is 7.86 µM.

And the TGI [4]?
Its TGI is 49.8 µM.

What about the TGI [5] of the same molecule?
The TGI was 54.7 µM.

What about the TGI [6] of the same molecule?
The TGI was 25.5 µM.

What about the TGI [7] of the same molecule?
Its TGI is > 100 µM.

What about the TGI [8] of the same molecule?
Its TGI is 13.2 µM.

What about the TGI [9] of the same molecule?
Its TGI is > 100 µM.

And the TGI [10]?
The TGI was 7.5 µM.

What about the TGI [11] of the same molecule?
Its TGI is 21.2 µM.

What about the TGI [12] of the same molecule?
The TGI was > 100 µM.

And the TGI [13]?
The TGI was 8.65 µM.

What about the TGI [14] of the same molecule?
Its TGI is 23.4 µM.

For `CC(=O)OCC12CC(CC1OC(C)=O)c1ccccc12` (configuration not stated), which TGI [1] is on record?
Its TGI is > 100 µM.

What about the TGI [2] of the same molecule?
The TGI was > 100 µM.

What about the TGI [3] of the same molecule?
Its TGI is > 100 µM.

And the TGI [6]?
The TGI was > 100 µM.

And the TGI [7]?
Its TGI is > 100 µM.

And the TGI [8]?
Its TGI is > 100 µM.

And the TGI [9]?
Its TGI is > 100 µM.

And the TGI [10]?
Its TGI is > 100 µM.

What about the TGI [11] of the same molecule?
Its TGI is > 100 µM.

And the TGI [12]?
Its TGI is > 100 µM.

What about the TGI [13] of the same molecule?
Its TGI is > 100 µM.

What about the TGI [14] of the same molecule?
Its TGI is > 100 µM.

Which TGI [1] does the source give for `CC(C)N(C(=O)C12C3C4C5C3C1(C(=O)O)C5C42)C(C)C` (configuration not stated) here?
The TGI was > 100 µM.

And the TGI [2]?
The TGI was > 100 µM.

What about the TGI [3] of the same molecule?
The TGI was > 100 µM.

What about the TGI [4] of the same molecule?
The TGI was > 100 µM.

What about the TGI [15] of the same molecule?
The TGI was > 100 µM.

And the TGI [6]?
Its TGI is > 100 µM.

What about the TGI [7] of the same molecule?
The TGI was > 100 µM.

And the TGI [8]?
Its TGI is > 100 µM.

What about the TGI [9] of the same molecule?
The TGI was > 100 µM.

And the TGI [10]?
Its TGI is > 100 µM.

And the TGI [11]?
The TGI was > 100 µM.

And the TGI [12]?
The TGI was > 100 µM.

What about the TGI [13] of the same molecule?
The TGI was > 100 µM.

What about the TGI [14] of the same molecule?
Its TGI is > 100 µM.

Which TGI [1] does the source give for `COc1cc2c(c(OC)c1OC)-c1ccc(SC)c(=O)cc1[C@@H](NC(=O)c1cccc([N+](=O)[O-])c1)CC2` here?
Its TGI is 14.9 µM.

And the TGI [2]?
Its TGI is 0.0343 µM.

What about the TGI [3] of the same molecule?
The TGI was 0.0467 µM.

What about the TGI [6] of the same molecule?
Its TGI is 0.0708 µM.

And the TGI [9]?
Its TGI is > 100 µM.

And the TGI [11]?
Its TGI is 70.2 µM.

And the TGI [12]?
The TGI was 16.5 µM.

What about the TGI [13] of the same molecule?
Its TGI is 0.0358 µM.

And the TGI [14]?
The TGI was > 100 µM.

With `Cc1ccc(C(=O)NC2CCCCC2)cc1N=NN(C)C` as the molecule, how does the TGI [1] read?
The TGI was > 100 µM.

What about the TGI [3] of the same molecule?
The TGI was > 100 µM.

What about the TGI [4] of the same molecule?
Its TGI is > 100 µM.

What about the TGI [6] of the same molecule?
The TGI was > 100 µM.

And the TGI [7]?
Its TGI is > 100 µM.

And the TGI [8]?
Its TGI is > 100 µM.

What about the TGI [9] of the same molecule?
Its TGI is > 100 µM.

What about the TGI [10] of the same molecule?
Its TGI is > 100 µM.

What about the TGI [11] of the same molecule?
Its TGI is > 100 µM.

What about the TGI [12] of the same molecule?
Its TGI is > 100 µM.

What about the TGI [13] of the same molecule?
The TGI was > 100 µM.

And the TGI [14]?
The TGI was > 100 µM.

With `NC(=O)N/N=C(\CC1OC(=O)c2ccccc21)c1ccc([N+](=O)[O-])cc1` (configuration not stated) as the molecule, how does the TGI [1] read?
Its TGI is 53.6 µM.

And the TGI [2]?
The TGI was > 100 µM.

What about the TGI [3] of the same molecule?
Its TGI is 47.2 µM.

And the TGI [4]?
Its TGI is 35.4 µM.

What about the TGI [5] of the same molecule?
The TGI was 28.9 µM.

What about the TGI [15] of the same molecule?
The TGI was > 100 µM.

And the TGI [6]?
The TGI was > 100 µM.

What about the TGI [8] of the same molecule?
The TGI was > 100 µM.

What about the TGI [9] of the same molecule?
Its TGI is > 100 µM.

And the TGI [11]?
The TGI was 76.1 µM.

What about the TGI [13] of the same molecule?
Its TGI is 96.2 µM.

What about the TGI [14] of the same molecule?
The TGI was 68.1 µM.

Which results are given for `CC(C)C1=Cc2ccc3c(c2C(=O)C1=O)CCCC3`?
TGI [1]: 42.1 µM; TGI [2]: 27.1 µM; TGI [3]: 25.6 µM; TGI [4]: 18.8 µM; TGI [5]: 7.82 µM; TGI [15]: 5.53 µM; TGI [6]: 25.1 µM; TGI [7]: 13.4 µM; TGI [8]: 26.6 µM; TGI [9]: 3.16 µM; TGI [16]: 19.3 µM; TGI [10]: 20.3 µM; TGI [11]: 13.6 µM; TGI [12]: 16.6 µM; TGI [13]: 42.7 µM; TGI [14]: 8.59 µM

Which results are given for `N#CC(NNC(=O)Cc1ccccc1)c1ccc([N+](=O)[O-])cc1` (configuration not stated)?
TGI [1]: > 100 µM; TGI [2]: > 100 µM; TGI [3]: > 100 µM; TGI [4]: > 100 µM; TGI [5]: > 100 µM; TGI [6]: > 100 µM; TGI [7]: > 100 µM; TGI [8]: > 100 µM; TGI [9]: > 100 µM; TGI [10]: > 100 µM; TGI [11]: > 100 µM; TGI [12]: > 100 µM; TGI [14]: > 100 µM

`CC1(O)CC2C(CC1SC1CC3C(CC1(C)O)C3(C)C)C2(C)C` (configuration not stated) was tested. Which TGI [2] did it give?
The TGI was > 100 µM.

What about the TGI [3] of the same molecule?
The TGI was 59.7 µM.

And the TGI [4]?
The TGI was > 100 µM.

And the TGI [15]?
The TGI was > 100 µM.

And the TGI [6]?
The TGI was > 100 µM.

What about the TGI [7] of the same molecule?
The TGI was > 100 µM.

And the TGI [8]?
The TGI was > 100 µM.

What about the TGI [9] of the same molecule?
Its TGI is 94.1 µM.

What about the TGI [10] of the same molecule?
Its TGI is > 100 µM.

What about the TGI [11] of the same molecule?
Its TGI is > 100 µM.

And the TGI [12]?
The TGI was > 100 µM.

And the TGI [14]?
Its TGI is 63.4 µM.

Which results are given for `O=C1C(Cl)C(c2ccccc2Cl)N1n1cnc2ccccc2c1=O` (configuration not stated)?
TGI [1]: > 100 µM; TGI [2]: > 100 µM; TGI [3]: > 100 µM; TGI [4]: 68.4 µM; TGI [5]: 67.3 µM; TGI [15]: > 100 µM; TGI [6]: > 100 µM; TGI [7]: > 100 µM; TGI [8]: > 100 µM; TGI [9]: > 100 µM; TGI [10]: > 100 µM; TGI [11]: > 100 µM; TGI [12]: > 100 µM; TGI [13]: > 100 µM; TGI [14]: > 100 µM

What does the source list for `O=C(CCN1CCCCC1)Nc1ccc2c(c1)C(=O)c1ccc(NC(=O)CCN3CCCCC3)cc1C2=O`?
TGI [1]: 6.67 µM; TGI [2]: 24 µM; TGI [3]: 10.2 µM; TGI [4]: 9.92 µM; TGI [5]: 17.6 µM; TGI [6]: 9.99 µM; TGI [7]: 13.7 µM; TGI [8]: 3 µM; TGI [9]: 8.45 µM; TGI [16]: 3.03 µM; TGI [10]: 12.5 µM; TGI [11]: 3.87 µM; TGI [12]: 24.2 µM; TGI [13]: 33.2 µM; TGI [14]: > 100 µM

With `N=S(c1ccccc1[N+](=O)[O-])c1ccccc1[N+](=O)[O-]` as the molecule, how does the TGI [1] read?
Its TGI is 8.51 µM and 10.8 µM.

What about the TGI [2] of the same molecule?
The TGI was 2.77 µM and 4.12 µM.

What about the TGI [3] of the same molecule?
The TGI was 3.83 µM and 8.22 µM.

What about the TGI [4] of the same molecule?
Its TGI is 7.97 µM and 9.86 µM.

And the TGI [5]?
The TGI was 5.6 µM and 14.4 µM.

And the GI50 [15]?
Its GI50 is 4.84 µM and 2.14 µM.

And the TGI [15]?
Its TGI is 11.5 µM and 6.15 µM.

And the GI50 [6]?
The GI50 was 1.54 µM and 3.83 µM.

And the TGI [6]?
Its TGI is 5.16 µM and 8.69 µM.

And the TGI [7]?
The TGI was 5.4 µM and 13.1 µM.

And the GI50 [8]?
Its GI50 is 7.83 µM and 14.4 µM.

And the TGI [8]?
Its TGI is 21.5 µM and 32 µM.

And the TGI [9]?
Its TGI is 2.05 µM and 1.11 µM.

And the TGI [16]?
The TGI was 2.83 µM.

And the TGI [10]?
The TGI was 6.77 µM and 11 µM.

What about the TGI [11] of the same molecule?
Its TGI is 5.15 µM and 7.87 µM.

And the TGI [12]?
Its TGI is 11.9 µM and 5.94 µM.

What about the GI50 [13] of the same molecule?
The GI50 was 5.21 µM and 12.9 µM.

What about the TGI [13] of the same molecule?
Its TGI is 11.2 µM and 27.4 µM.

And the TGI [14]?
The TGI was 12.3 µM and 6.84 µM.

Which results are given for `Cc1cc(Cl)ccc1NC(=O)/C(=N\NC(C)(C)C)C(C#N)c1nc(-c2ccc([N+](=O)[O-])cc2)cs1` (configuration not stated)?
TGI [1]: > 100 µM; TGI [3]: > 100 µM; TGI [4]: > 100 µM; TGI [15]: > 100 µM; TGI [6]: > 100 µM; TGI [7]: > 100 µM; TGI [8]: > 100 µM; TGI [9]: > 100 µM; TGI [10]: > 100 µM; TGI [11]: > 100 µM; TGI [12]: > 100 µM; TGI [13]: > 100 µM; TGI [14]: > 100 µM
